Usually inhibition stands for the drop in the measured response relative to a control, in per cent.

Holding throughout (test): Kinase panel (mobility shift)
What all share (type): biochemical

For one assay, the target named is HIPK3 (Homo sapiens, UniProt Q9H422). In a few lines:
(§1)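 Each kinase was incubated with a fluorescently labeled substrate and compound in a standard reaction mix. After the reaction was stopped, product and substrate were separated on microfluidic chips by electrophoretic mobility shift. Activity came from comparing product and substrate peak fluorescence, graded A (95% or greater), B (90%-94%) or C (80%-89%) at 5 um.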

The target of the next assay is KIT (Homo sapiens, UniProt P10721). In a few lines:
as §1

Another assay deals with LCK (Homo sapiens, UniProt P06239). The procedure, abridged: as §1
Chain of LCK (P06239 whole entry, species assumed): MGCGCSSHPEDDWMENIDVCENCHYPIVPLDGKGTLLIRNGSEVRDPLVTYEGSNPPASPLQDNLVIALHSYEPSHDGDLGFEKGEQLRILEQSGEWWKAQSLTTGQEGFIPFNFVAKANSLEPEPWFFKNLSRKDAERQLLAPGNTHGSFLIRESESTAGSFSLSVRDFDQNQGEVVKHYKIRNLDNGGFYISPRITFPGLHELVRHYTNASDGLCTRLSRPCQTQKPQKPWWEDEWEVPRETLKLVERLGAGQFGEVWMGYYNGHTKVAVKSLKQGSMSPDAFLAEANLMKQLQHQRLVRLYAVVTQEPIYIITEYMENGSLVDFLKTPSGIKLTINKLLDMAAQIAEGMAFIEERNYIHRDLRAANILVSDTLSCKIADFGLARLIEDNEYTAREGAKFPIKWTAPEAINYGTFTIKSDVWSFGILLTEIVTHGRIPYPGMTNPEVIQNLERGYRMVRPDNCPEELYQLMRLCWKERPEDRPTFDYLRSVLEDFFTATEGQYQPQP
For another assay, the target named is P38-b (Homo sapiens, UniProt Q15759). In a few lines: as §1
Chain of P38-b (Q15759 whole entry, species assumed): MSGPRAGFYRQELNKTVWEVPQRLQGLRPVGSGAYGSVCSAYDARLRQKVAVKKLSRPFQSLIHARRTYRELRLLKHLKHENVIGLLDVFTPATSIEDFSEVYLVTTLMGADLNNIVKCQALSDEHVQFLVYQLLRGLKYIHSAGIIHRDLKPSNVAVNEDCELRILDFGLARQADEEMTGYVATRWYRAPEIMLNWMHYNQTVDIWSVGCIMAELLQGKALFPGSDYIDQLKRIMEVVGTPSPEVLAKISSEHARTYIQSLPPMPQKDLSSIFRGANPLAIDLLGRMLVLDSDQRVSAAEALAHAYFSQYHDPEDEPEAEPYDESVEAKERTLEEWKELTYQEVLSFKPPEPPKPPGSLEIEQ
The target in a further assay is PDGFR-a (Homo sapiens, UniProt P16234). In a few lines:
as §1

The next assay concerns the target T1, TAOK2 (Homo sapiens, UniProt Q9UL54).
T1 sequence (Q9UL54 1-1235): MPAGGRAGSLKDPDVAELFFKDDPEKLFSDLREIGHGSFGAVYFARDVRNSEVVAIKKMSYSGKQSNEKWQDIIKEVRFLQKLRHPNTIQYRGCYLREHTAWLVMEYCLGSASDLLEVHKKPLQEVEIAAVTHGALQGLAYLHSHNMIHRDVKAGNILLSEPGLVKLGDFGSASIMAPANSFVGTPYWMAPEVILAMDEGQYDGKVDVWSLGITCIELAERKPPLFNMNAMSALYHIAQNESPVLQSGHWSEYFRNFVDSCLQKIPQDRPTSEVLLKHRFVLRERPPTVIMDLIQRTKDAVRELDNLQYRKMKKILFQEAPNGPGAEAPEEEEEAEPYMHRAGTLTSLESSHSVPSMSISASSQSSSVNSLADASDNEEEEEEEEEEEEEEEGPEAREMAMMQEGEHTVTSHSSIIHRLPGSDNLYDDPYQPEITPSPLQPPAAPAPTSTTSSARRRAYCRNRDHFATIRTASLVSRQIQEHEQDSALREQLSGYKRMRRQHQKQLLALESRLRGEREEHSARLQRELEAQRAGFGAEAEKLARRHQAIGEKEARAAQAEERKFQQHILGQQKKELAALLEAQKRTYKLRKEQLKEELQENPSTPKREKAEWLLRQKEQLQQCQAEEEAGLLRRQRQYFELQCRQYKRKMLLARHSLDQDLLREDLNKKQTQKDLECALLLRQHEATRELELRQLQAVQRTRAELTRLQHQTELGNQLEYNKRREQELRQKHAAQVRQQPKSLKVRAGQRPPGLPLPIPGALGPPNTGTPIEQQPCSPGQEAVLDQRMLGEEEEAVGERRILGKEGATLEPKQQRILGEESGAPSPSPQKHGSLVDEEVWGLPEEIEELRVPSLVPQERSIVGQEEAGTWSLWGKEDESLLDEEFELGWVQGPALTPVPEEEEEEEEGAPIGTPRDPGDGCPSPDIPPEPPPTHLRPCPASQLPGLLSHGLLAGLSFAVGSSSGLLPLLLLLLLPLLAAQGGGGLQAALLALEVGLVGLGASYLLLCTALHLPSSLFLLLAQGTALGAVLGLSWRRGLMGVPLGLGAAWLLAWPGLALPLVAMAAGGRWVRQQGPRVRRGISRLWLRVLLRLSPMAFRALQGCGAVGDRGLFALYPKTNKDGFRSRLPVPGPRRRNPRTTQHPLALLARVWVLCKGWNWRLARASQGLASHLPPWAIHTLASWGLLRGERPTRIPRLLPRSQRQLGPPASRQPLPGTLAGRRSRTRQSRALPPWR
The procedure, abridged:
as §1

A further assay has as its target T2, TYRO3 (Homo sapiens, UniProt Q06418).
T2 sequence (Q06418 41-890): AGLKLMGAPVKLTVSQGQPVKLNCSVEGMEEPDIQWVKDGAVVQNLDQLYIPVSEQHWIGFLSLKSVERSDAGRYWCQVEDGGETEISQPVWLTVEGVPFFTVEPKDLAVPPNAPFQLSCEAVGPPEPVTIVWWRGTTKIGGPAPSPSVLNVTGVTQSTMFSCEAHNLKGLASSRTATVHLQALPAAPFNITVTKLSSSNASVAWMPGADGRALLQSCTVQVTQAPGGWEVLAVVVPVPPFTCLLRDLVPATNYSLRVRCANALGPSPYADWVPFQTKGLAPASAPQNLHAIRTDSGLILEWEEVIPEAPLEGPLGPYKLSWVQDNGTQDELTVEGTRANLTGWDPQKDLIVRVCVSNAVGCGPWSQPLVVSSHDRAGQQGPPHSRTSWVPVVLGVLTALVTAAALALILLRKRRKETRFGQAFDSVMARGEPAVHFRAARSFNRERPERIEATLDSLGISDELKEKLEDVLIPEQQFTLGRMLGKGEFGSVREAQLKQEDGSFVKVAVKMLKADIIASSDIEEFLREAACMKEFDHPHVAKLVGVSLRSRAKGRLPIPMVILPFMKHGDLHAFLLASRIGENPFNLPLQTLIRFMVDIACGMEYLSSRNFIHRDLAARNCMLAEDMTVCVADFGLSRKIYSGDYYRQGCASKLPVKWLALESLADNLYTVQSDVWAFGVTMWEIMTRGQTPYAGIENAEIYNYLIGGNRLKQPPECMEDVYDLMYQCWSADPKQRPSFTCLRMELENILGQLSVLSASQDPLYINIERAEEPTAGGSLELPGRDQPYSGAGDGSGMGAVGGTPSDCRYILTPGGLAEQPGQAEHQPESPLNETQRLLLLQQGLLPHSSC
The procedure, abridged: as §1

Each structure is given as a SMILES string.

Chain of PDGFR-a (P16234 24-1089, species assumed): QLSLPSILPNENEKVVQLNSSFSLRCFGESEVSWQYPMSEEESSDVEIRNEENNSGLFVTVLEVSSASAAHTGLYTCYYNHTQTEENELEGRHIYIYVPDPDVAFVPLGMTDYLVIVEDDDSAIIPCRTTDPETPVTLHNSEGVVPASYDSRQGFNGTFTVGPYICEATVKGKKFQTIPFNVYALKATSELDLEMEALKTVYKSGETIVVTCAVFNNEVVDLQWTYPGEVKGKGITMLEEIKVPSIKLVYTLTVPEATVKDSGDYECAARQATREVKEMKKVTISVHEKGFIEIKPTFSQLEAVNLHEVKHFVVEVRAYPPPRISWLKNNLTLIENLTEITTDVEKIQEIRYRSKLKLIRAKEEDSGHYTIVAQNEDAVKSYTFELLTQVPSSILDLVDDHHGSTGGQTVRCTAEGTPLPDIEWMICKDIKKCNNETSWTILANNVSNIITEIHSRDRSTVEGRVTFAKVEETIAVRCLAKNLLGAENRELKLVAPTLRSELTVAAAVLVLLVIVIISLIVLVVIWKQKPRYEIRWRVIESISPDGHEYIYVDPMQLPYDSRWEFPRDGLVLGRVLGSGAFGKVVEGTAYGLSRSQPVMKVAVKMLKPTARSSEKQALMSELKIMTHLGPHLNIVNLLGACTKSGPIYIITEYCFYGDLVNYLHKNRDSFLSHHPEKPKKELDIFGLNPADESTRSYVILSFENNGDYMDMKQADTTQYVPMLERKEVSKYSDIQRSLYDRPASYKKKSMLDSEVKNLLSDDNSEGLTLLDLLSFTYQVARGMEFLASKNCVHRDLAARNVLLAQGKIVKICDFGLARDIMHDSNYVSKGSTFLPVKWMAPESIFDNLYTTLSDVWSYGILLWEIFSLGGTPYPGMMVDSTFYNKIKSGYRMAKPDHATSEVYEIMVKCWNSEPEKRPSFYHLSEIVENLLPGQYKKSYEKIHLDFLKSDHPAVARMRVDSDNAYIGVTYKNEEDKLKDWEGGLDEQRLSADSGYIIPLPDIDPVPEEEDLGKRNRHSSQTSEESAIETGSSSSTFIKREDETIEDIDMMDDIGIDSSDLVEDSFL
Chain of KIT (P10721 26-976, species assumed): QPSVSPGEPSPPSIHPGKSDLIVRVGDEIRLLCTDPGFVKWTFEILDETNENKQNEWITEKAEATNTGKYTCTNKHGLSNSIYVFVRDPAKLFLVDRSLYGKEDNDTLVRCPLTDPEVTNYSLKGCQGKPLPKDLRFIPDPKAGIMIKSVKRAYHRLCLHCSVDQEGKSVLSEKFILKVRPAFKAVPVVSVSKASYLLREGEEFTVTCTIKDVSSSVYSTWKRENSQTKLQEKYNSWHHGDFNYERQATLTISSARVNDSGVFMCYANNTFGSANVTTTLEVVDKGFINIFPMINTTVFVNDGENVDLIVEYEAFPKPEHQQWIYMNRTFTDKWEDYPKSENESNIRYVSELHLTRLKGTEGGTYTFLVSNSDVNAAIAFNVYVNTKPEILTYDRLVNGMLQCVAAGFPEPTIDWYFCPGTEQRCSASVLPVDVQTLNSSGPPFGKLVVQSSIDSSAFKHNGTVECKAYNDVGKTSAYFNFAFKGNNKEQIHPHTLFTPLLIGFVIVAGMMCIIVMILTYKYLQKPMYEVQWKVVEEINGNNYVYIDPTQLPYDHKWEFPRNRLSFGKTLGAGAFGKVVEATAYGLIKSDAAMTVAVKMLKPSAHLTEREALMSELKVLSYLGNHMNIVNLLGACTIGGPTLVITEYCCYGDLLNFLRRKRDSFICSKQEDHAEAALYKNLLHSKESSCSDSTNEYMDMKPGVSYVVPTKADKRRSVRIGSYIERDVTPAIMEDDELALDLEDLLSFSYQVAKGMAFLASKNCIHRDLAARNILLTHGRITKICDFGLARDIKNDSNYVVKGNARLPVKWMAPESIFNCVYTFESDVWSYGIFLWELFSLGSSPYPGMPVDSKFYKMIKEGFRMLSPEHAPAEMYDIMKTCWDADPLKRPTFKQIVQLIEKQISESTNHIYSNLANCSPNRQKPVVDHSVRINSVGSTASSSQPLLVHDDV
Chain of HIPK3 (Q9H422 whole entry, species assumed): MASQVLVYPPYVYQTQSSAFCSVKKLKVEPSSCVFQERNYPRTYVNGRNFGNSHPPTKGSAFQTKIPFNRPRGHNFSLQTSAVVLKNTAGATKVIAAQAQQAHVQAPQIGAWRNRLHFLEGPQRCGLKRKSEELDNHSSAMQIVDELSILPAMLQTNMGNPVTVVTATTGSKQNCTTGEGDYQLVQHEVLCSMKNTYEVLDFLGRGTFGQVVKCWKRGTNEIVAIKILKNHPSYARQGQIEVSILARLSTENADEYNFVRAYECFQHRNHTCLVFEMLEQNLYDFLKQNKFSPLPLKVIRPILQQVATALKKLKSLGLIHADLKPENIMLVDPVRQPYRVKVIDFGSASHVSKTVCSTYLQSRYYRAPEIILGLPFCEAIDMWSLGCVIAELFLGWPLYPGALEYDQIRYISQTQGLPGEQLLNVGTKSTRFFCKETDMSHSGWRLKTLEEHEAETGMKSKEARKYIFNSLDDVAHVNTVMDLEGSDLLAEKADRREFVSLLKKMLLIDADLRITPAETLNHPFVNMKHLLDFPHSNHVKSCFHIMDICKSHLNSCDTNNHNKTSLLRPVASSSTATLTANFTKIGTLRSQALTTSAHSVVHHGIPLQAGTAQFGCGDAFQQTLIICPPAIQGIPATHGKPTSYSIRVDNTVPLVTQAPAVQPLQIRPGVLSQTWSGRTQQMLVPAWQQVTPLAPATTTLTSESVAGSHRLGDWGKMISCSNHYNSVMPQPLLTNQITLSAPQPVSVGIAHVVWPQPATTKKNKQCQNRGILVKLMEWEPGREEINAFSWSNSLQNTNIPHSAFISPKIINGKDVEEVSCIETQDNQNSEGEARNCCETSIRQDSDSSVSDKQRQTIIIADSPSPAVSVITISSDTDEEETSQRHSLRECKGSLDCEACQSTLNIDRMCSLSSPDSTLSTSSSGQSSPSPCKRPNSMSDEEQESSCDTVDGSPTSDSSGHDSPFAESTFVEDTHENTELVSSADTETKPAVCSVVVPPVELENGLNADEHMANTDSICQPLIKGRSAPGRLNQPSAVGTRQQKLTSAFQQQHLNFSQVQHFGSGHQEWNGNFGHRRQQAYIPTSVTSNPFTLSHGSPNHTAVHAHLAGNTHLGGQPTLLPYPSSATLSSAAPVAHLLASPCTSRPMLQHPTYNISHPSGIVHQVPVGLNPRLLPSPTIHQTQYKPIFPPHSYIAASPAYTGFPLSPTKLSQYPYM

In the case of `CNC(=O)c1cc(Oc2c(F)cc(NC(=O)c3nc(NC)sc3-c3ccc(F)cc3)cc2F)ccn1` [Compound 19], the inhibition at 5 µM is less than 50% on HIPK3; 50 to 79% at KIT; 50 to 79% on LCK; less than 50% on P38-b; 50 to 79% on PDGFR-a; less than 50% on TAOK2. The inhibition at 5 µM at TYRO3 lay in the range of 50 to 79%.
Turning to `CNC(=O)c1cc(Oc2ccc(NC(=O)c3nc(NC)sc3-c3ccc(F)cc3F)cc2F)ccn1` [Compound 21], the inhibition at 5 µM is 50 to 79% on HIPK3; less than 50% at KIT; less than 50% on LCK; less than 50% on P38-b; less than 50% on PDGFR-a; less than 50% at TAOK2. Besides, on TYRO3, the inhibition at 5 µM was less than 50%.
With `CNC(=O)c1cc(Oc2ccc(NC(=O)c3nc(NC)sc3-c3ccc(F)cc3C)cc2F)ccn1` [Compound 23], the inhibition at 5 µM was less than 50% on HIPK3; 50 to 79% at KIT; 80 to 89% at LCK; less than 50% at P38-b; less than 50% at PDGFR-a; 50 to 79% at TAOK2. In addition, the inhibition at 5 µM at TYRO3 is 80 to 89%.
Consider `CNC(=O)c1cc(Oc2ccc(NC(=O)c3nc(OC)oc3-c3ccc(F)c(F)c3)cc2F)ccn1` [Compound 24], for which the inhibition at 5 µM is 50 to 79% on HIPK3; less than 50% at KIT; 50 to 79% at LCK; less than 50% at P38-b; less than 50% at PDGFR-a; less than 50% at TAOK2. On TYRO3, the inhibition at 5 µM is 50 to 79%.
Take `CNC(=O)c1cc(Oc2ccc(NC(=O)c3nc(OC)oc3-c3ccc(F)s3)cc2F)ccn1` [Compound 25]: the inhibition at 5 µM on HIPK3, at KIT, on LCK, on P38-b, on PDGFR-a and on TAOK2 was less than 50% each time. Also, the inhibition at 5 µM on TYRO3 is 50 to 79%.
As for `CNC(=O)c1cc(Oc2ccc(NC(=O)c3nc(C4CC4)oc3-c3ccc(F)cc3)cc2F)ccn1` [Compound 26], the inhibition at 5 µM lay within 50 to 79% on HIPK3; 50 to 79% on KIT; 90 to 94% at LCK; 50 to 79% at P38-b; 50 to 79% at PDGFR-a; 50 to 79% on TAOK2. For the same compound, the inhibition at 5 µM on TYRO3 lay in the range of 90 to 94%.
Turning to `CSc1nc(C(=O)Nc2ccc(Oc3ccnc(C(=O)NC4CNC4)c3)c(F)c2)c(-c2ccc(F)s2)o1` [Compound 27], the inhibition at 5 µM on HIPK3, at KIT, on LCK, on P38-b, at PDGFR-a and at TAOK2 was less than 50% throughout. For the same compound, the inhibition at 5 µM on TYRO3 is less than 50%.
In the case of `CSc1nc(C(=O)Nc2ccc(Oc3ccnc(C(=O)NC4COC4)c3)c(F)c2)c(-c2ccc(F)s2)o1` [Compound 28], the inhibition at 5 µM at HIPK3, on KIT, at LCK, on P38-b, on PDGFR-a and at TAOK2 was less than 50% in each case. Moreover, the inhibition at 5 µM on TYRO3 is less than 50%.
Take `CSc1nc(C(=O)Nc2ccc(Oc3ccnc(C(=O)NC4CNC4)c3)c(F)c2)c(-c2ccc(F)cc2)o1` [Compound 29]: the inhibition at 5 µM on HIPK3 was 80 to 89%; at KIT it was less than 50%; at LCK, less than 50%; at P38-b, 80 to 89%; on PDGFR-a, less than 50%; at TAOK2, 50 to 79%. Also, the inhibition at 5 µM on TYRO3 was in the range of 50 to 79%.
Consider `CNC(=O)c1cc(Oc2ccc(NC(=O)c3nc(COC)oc3-c3ccc(F)cc3)cc2F)ccn1` [Compound 30], for which the inhibition at 5 µM lay within 90 to 94% at HIPK3; 50 to 79% on KIT; 80 to 89% at LCK; 50 to 79% at P38-b; 50 to 79% on PDGFR-a; 50 to 79% on TAOK2. At TYRO3, the inhibition at 5 µM is not below 95%.
As for `CSc1nc(C(=O)Nc2ccc(Oc3ccnc(C(=O)NC4COC4)c3)c(F)c2)c(-c2ccc(F)cc2)o1` [Compound 31], the inhibition at 5 µM at HIPK3, at KIT, at LCK, on P38-b, on PDGFR-a and at TAOK2 was less than 50% in each case. In addition, on TYRO3, the inhibition at 5 µM lay in the range of 50 to 79%.
For `CNC(=O)c1cc(Oc2ccc(NC(=O)c3nc(OC4CC4)oc3-c3ccc(F)cc3)cc2F)ccn1` [Compound 32], the inhibition at 5 µM at HIPK3 was 50 to 79%; on KIT, less than 50%; at LCK, 80 to 89%; at P38-b, 50 to 79%; at PDGFR-a it was less than 50%; at TAOK2, 50 to 79%. Besides, at TYRO3, the inhibition at 5 µM lay in the range of 90 to 94%.
On to `[2H]C([2H])([2H])NC(=O)c1cc(Oc2ccc(NC(=O)c3nc(SC)oc3-c3ccc(F)c(F)c3)cc2F)ccn1` [Compound 33], for which the inhibition at 5 µM was 50 to 79% on HIPK3; less than 50% on KIT; 50 to 79% on LCK; less than 50% on P38-b; less than 50% on PDGFR-a; less than 50% on TAOK2. Also, at TYRO3, the inhibition at 5 µM fell in the range of 50 to 79%.
In the case of `CNC(=O)c1cc(Oc2ccc(NC(=O)c3nc(SC(C)C)oc3-c3ccc(F)cc3)cc2F)ccn1` [Compound 34], the inhibition at 5 µM on HIPK3 is less than 50%; on KIT, 50 to 79%; at LCK, 80 to 89%; at P38-b, 50 to 79%; on PDGFR-a it was less than 50%; at TAOK2, 50 to 79%. Also, on TYRO3, the inhibition at 5 µM was in the range of 80 to 89%.
With `[2H]C([2H])([2H])NC(=O)c1cc(Oc2ccc(NC(=O)c3nc(SC)oc3-c3ccc(F)s3)cc2F)ccn1` [Compound 35], the inhibition at 5 µM on HIPK3, at KIT, at LCK, on P38-b, at PDGFR-a and at TAOK2 was less than 50% in each case. The inhibition at 5 µM at TYRO3 is 50 to 79%.

The values are drawn from patent publication US11629143B2, “HipK4 inhibitors and uses thereof” (Vibliome Therapeutics, LLC, priority 2020, dated 2023).
